Source: publication PMC9598367, “Discovery and Preliminary Structure-Activity Investigation of 3-Substituted-1H-imidazol-5-yl-1H-indoles with In Vitro Activity towards Methicillin-Resistant Staphylococcus aureus” (Antibiotics, 2022)
In brackets after ≈: the same amount, converted by molar mass. Entries after “also recorded” stand apart in the source; their conditions may differ.

Experiments:
[1] = system: Staphylococcus aureus ATCC43300 (MRSA); assay: MIC, MRSA ATCC43300 (CO-ADD protocol); format: cell-based; conditions: for MIC: Staphylococcus aureus, Staphylococcus aureus ATCC43300 (MRSA), mean (n = 2), read-out: MIC (µg/mL) MRSA; for anti-MRSA activity (in words): result in words
From the text: Additional antimicrobial evaluation against Staphylococcus aureus MRSA (ATCC43300), Pseudomonas aeruginosa (ATCC27853), Escherichia coli (ATCC25922), Klebsiella pneumoniae (ATCC700603), Acinetobacter baumannii (ATCC19606), Candida albicans (ATCC90028), and Cryptococcus neoformans (ATCC208821) was undertaken at the Community for Open Antimicrobial Drug Discovery at The University of Queensland (Australia) according to their standard protocols. For antimicrobial assays, the tested strains were cultured in either Luria broth (LB) (In Vitro Technologies, USB75852, Noble Park North, Australia), nutrient broth (NB) (Becton Dickson, 234000, Macquarie Park, Australia), or cation-adjusted MHB at 37 °C overnight. A sample of culture was then diluted 40-fold in fresh MHB and incubated at 37 °C for 1.5−2 h. The compounds were serially diluted 2-fold across the wells of 96-well plates (Corning 3641, Tewksbury, MA, USA, nonbinding surface), with compound concentrations ranging from 0.015 to 64 μg/mL, plated in duplicate. The resultant mid log phase cultures were diluted to the final concentration of 1 × 10^6 CFU/mL; then, 50 μL was added to each well of the compound containing plates giving a final compound concentration range of 0.008 to 32 μg/mL and a cell density of 5 × 10^5 CFU/mL. All plates were then covered and incubated at 37 °C for 18 h. Resazurin was added at 0.001% final concentration to each well and incubated for 2 h before MICs were read by eye.
(§1) Colistin and vancomycin were used as positive bacterial inhibitor standards for Gram-negative and Gram-positive bacteria, respectively. Fluconazole was used as a positive fungal inhibitor standard for C. albicans and C. neoformans. The antibiotics were provided in 4 concentrations, with 2 above and 2 below its MIC value, and plated into the first 8 wells of column 23 of the 384-well NBS plates. The quality control (QC) of the assays was determined by the antimicrobial controls and the Z′-factor (using positive and negative controls).

[2] = system: human red blood cells; assay: Hemolytic assay; format: cell-based; conditions: for HC10: concentration at 10% hemolytic activity on human red blood cells, mean (n = 2); for hemolytic activity (in words): human red blood cells, result in words
Procedure: Human whole blood was washed three times with 3 volumes of 0.9% NaCl and then resuspended in same to a concentration of 0.5 × 10^8 cells/mL, as determined by manual cell count in a Neubauer hemocytometer. The washed cells were then added to the 384-well compound-containing plates for a final volume of 50 μL. After a 10 min shake on a plate shaker the plates were then incubated for 1 h at 37 °C. After incubation, the plates were centrifuged at 1000 g for 10 min to pellet cells and debris, 25 μL of the supernatant was then transferred to a polystyrene 384-well assay plate. Hemolysis was determined by measuring the supernatant absorbance at […] (OD405). The absorbance was measured using a Tecan M1000 Pro monochromator plate reader. HC10 and HC50 (concentration at 10% and 50% hemolysis, respectively) were calculated by curve fitting the inhibition values vs. log(concentration) using a sigmoidal dose–response function with variable fitting values for top, bottom and slope.

[3] = system: Cryptococcus neoformans ATCC208821; assay: Antifungal MIC, C. neoformans; format: cell-based; conditions: for MIC: Cryptococcus neoformans ATCC208821, mean (n = 2); for antifungal activity towards C. neoformans (in words): result in words
Procedure: For the antifungal assay, fungi strains were cultured for 3 days on yeast extract-peptone dextrose (YPD) agar at 30 °C. A yeast suspension of 1 × 10^6 to 5 × 10^6 CFU/mL was prepared from five colonies. These stock suspensions were diluted with yeast nitrogen base (YNB) (Becton Dickinson, 233520) broth to a final concentration of 2.5 × 10^3 CFU/mL. The compounds were serially diluted 2-fold across the wells of 96-well plates (Corning 3641, nonbinding surface), with compound concentrations ranging from 0.015 to 64 μg/mL and final volumes of 50 μL, plated in duplicate. Then, 50 μL of the fungi suspension that was previously prepared in YNB broth to the final concentration of 2.5 × 10^3 CFU/mL was added to each well of the compound-containing plates, giving a final compound concentration range of 0.008 to 32 μg/mL. Plates were covered and incubated at 35 °C for 36 h without shaking. C. albicans MICs were determined by measuring the absorbance at OD530. For C. neoformans, resazurin was added at 0.006% final concentration to each well and incubated for a further 3 h before MICs were determined by measuring the absorbance at OD570–600.
as §1

[4] = system: Staphylococcus aureus ATCC25923; assay: MIC by broth dilution, S. aureus ATCC25923; format: cell-based; conditions: for MIC: Staphylococcus aureus ATCC25923, mean (n = 3)
Procedure: The susceptibility of S. aureus (ATCC25923) to antibiotics and compounds was determined in microplates using the standard broth dilution method in accordance with the recommendations of the Comité de l’AntibioGramme de la Société Française de Microbiologie (CA-SFM) as previously described. Briefly, the minimal inhibitory concentrations (MICs) were determined with an inoculum of 10^5 CFU in 200 µL of Mueller-Hinton broth (MHB) containing two-fold serial dilutions of each drug. […] To determine all MICs, the measurements were independently repeated in triplicate.

[5] = system: HEK293 human embryonic kidney cells; assay: HEK293 cytotoxicity assay (resazurin); format: cell-based; conditions: HEK293; result in words
Procedure: (§2) For the HEK293 cytotoxicity assay, cells were counted manually in a Neubauer hemocytometer and plated at a density of 5000 cells/well into each well of the 384-well plates containing the 25× (2 μL) concentrated compounds. The medium used was Dulbecco’s modified eagle medium (DMEM) supplemented with 10% fetal bovine serum (FBS). Cells were incubated together with the compounds for 20 h at 37 °C, 5% CO2. To measure cytotoxicity, 5 μL (equals 100 μM final) of resazurin was added to each well after incubation, and incubated for further 3 h at 37 °C with 5% CO2. After final incubation fluorescence intensity was measured as Fex 560/10 nm, em 590/10 nm (F560/590) using a Tecan M1000 Pro monochromator plate reader. CC50 values (concentration at 50% cytotoxicity) were calculated by normalizing the fluorescence readout, with 74 μg/mL tamoxifen as negative control (0%) and normal cell growth as positive control (100%). The concentration-dependent percentage cytotoxicity was fitted to a dose response function (using Pipeline Pilot) and CC50 values determined.

[6] = HEK293 cytotoxicity assay (resazurin); format: cell-based, human; conditions: human; concentration at 50% cytotoxicity on HEK293 cells; mean (n = 2)
Procedure: as §2

[7] = system: S. aureus (ATCC25923); assay: Membrane depolarization assay, DiSC3(5); format: cell-based, Staphylococcus aureus; conditions: preliminary investigation; result in words
Procedure: S. aureus (ATCC25923) was grown in MH II broth for 24 h at 37 °C. After reaching an OD600 nm of 0.5, cells were centrifuged (3600× g for 20 min at 20 °C) and washed twice with buffered sucrose solution (250 mM), magnesium sulfate solution (25 mM) and Hepes (5 mM) (pH = 7.2). The fluorescent dye […] DiSC3(5) was added to a final concentration of 5 µM and was incubated with the suspensions for 5 min at 37 °C to allow the dye incorporation into the polarized membranes. 10 µL of compound was then added to 90 µL of the fluorescent suspensions at different concentrations ranging from 200 µM to 25 µM. Fluorescence measurements were recorded for 20 minutes (excitation wavelength 622 nm, emission wavelength 690 nm).
The difference in the relative fluorescence values (RFU) from the control containing only buffer and the control containing bacteria treated only with cetyltrimethylammonium bromide ([…]) is taken as the maximum level of depolarization. Assays were performed in three independent experiments. Blank determined by using no compound. Maximum RFU determined by using CTAB 0.1%
Equation used: (RFU of the compound−RFU of the blank)×100/RFU of the maximum

COc1ccc2c(-c3cncn3CCc3ccccc3)c[nH]c2c1 [Compound 57, 6-Methoxy-3-(1-phenethyl-1H-imidazol-5-yl)-1H-indole]
MIC [1]: > 32 µg/mL | HC10 [2]: >32 µg/mL | hemolytic activity (in words) [2]: lack of cytotoxicity and hemolytic activity | MIC [3]: ≤ 0.25 µg/mL | antifungal activity towards C. neoformans (in words) [3]: non-toxic selective antifungals | MIC [4]: > 200 µg/mL | melting point: 48 to 49 °C | cytotoxicity (in words) [5]: lack of cytotoxicity and hemolytic activity | CC50 at 20 h [6]: > 32 µg/mL

c1ccc(-c2cncn2Cc2c[nH]c3ccccc23)cc1 [Compound 111, 3-((5-Phenyl-1H-imidazol-1-yl)methyl)-1H-indole]
MIC [1]: 16 µg/mL (≈ 58.5 µM) | HC10 [2]: >32 µg/mL | hemolytic activity (in words) [2]: lack of cytotoxicity and hemolytic activity | MIC [3]: ≤ 0.25 µg/mL | antifungal activity towards C. neoformans (in words) [3]: non-toxic selective antifungals | MIC [4]: 50 µg/mL (≈ 183 µM) | melting point: 57 to 58 °C | cytotoxicity (in words) [5]: lack of cytotoxicity and hemolytic activity | CC50 at 20 h [6]: > 32 µg/mL

COc1ccc(CCn2cncc2-c2c[nH]c3ccc(Cl)cc23)cc1 [Compound 26, 5-Chloro-3-(1-(4-methoxyphenethyl)-1H-imidazol-5-yl)-1H-indole]
MIC [1]: ≤ 0.25 µg/mL | anti-MRSA activity (in words) [1]: promising non-toxic selective anti-MRSA compounds | HC10 [2]: >32 µg/mL | hemolytic activity (in words) [2]: lacked cytotoxic or hemolytic properties | MIC [3]: > 32 µg/mL | MIC [4]: > 200 µg/mL | cytotoxicity (in words) [5]: lack of cytotoxicity; also recorded: lacked cytotoxic or hemolytic properties | CC50 at 20 h [6]: > 32 µg/mL

Fc1ccc2c(-c3cncn3Cc3ccc(I)cc3)c[nH]c2c1 [Compound 6, 6-Fluoro-3-(1-(4-iodobenzyl)-1H-imidazol-5-yl)-1H-indole]
MIC [1]: > 32 µg/mL | membrane depolarization of S. aureus [7]: only very weak membrane depolarization | HC10 [2]: >32 µg/mL | MIC [3]: 32 µg/mL (≈ 76.7 µM) | MIC [4]: 6.25 µg/mL (≈ 15 µM) | activity against S. aureus (in words) ([4]; result in words): strong activity | melting point: 191 to 192 °C | CC50 at 20 h [6]: 15.6 µg/mL (≈ 37.4 µM)

COc1ccc(CCn2cncc2-c2c[nH]c3ccccc23)cc1 [Compound 23, 3-(1-(4-Methoxyphenethyl)-1H-imidazol-5-yl)-1H-indole]
MIC [1]: 32 µg/mL (≈ 101 µM) | HC10 [2]: >32 µg/mL | MIC [3]: > 32 µg/mL | MIC [4]: 100 µg/mL (≈ 315 µM) | melting point: 158 to 159 °C | CC50 at 20 h [6]: 24.5 µg/mL (≈ 77.2 µM)

COc1ccc(CCn2cncc2-c2c[nH]c3cc(Cl)ccc23)cc1 [Compound 2, 6-Chloro-3-(1-(4-methoxyphenethyl)-1H-imidazol-5-yl)-1H-indole]
MIC [1]: 16 µg/mL (≈ 45.5 µM) | HC10 [2]: >32 µg/mL | MIC [3]: 32 µg/mL (≈ 91 µM) | MIC [4]: > 200 µg/mL | melting point: 165 to 166 °C | CC50 at 20 h [6]: 22.5 µg/mL (≈ 64 µM)

Brc1ccc2[nH]cc(-c3cncn3CCc3ccccc3)c2c1 [Compound 21, 5-Bromo-3-(1-phenethyl-1H-imidazol-5-yl)-1H-indole]
MIC [1]: 16 µg/mL (≈ 43.7 µM) | HC10 [2]: >32 µg/mL | MIC [3]: 32 µg/mL (≈ 87.4 µM) | MIC [4]: 6.25 µg/mL (≈ 17.1 µM) | melting point: 110 to 111 °C | CC50 at 20 h [6]: 10.6 µg/mL (≈ 28.9 µM)

COc1ccc(CCn2cncc2-c2c[nH]c3cc(Br)ccc23)cc1 [Compound 28, 6-Bromo-3-(1-(4-methoxyphenethyl)-1H-imidazol-5-yl)-1H-indole]
MIC [1]: 32 µg/mL (≈ 80.7 µM) | HC10 [2]: >32 µg/mL | MIC [3]: 32 µg/mL (≈ 80.7 µM) | MIC [4]: 12.5 µg/mL (≈ 31.5 µM) | melting point: 184 to 185 °C | CC50 at 20 h [6]: 15.6 µg/mL (≈ 39.4 µM)

COc1ccc(OC)c(CCn2cncc2-c2c[nH]c3ccc(Cl)cc23)c1 [Compound 32, 5-Chloro-3-(1-(2,5-dimethoxyphenethyl)-1H-imidazol-5-yl)-1H-indole]
anti-MRSA activity (in words) [1]: promising non-toxic selective anti-MRSA compounds | HC10 [2]: >32 µg/mL | hemolytic activity (in words) [2]: lacked cytotoxic or hemolytic properties | MIC [3]: > 32 µg/mL | MIC [4]: 100 µg/mL (≈ 262 µM) | cytotoxicity (in words) [5]: lack of cytotoxicity; also recorded: lacked cytotoxic or hemolytic properties | CC50 at 20 h [6]: > 32 µg/mL
